Values belong to the compound of their own block, whether it stands above or below them.
Assays:
Type in all cases: physicochemical
[1] = Hyperpolarization in aqueous media (3:1 methanol-d4:D2O, about 50° C.)
Method: One important aspect of our bioorthogonal reaction-promoted hyperpolarization approach is the ability to exploit this scheme using an aqueous solvent, which is critical for many biological reactions and would widely broaden the applicability of this strategy. […] The best results were achieved using a 3:1 methanol-d4:D2O mixture and by elevating the temperature to about 50° C. using a water bath while bubbling para-H2 through the solution.
A solution of 2 was prepared in the same 3:1 methanol-d4:D2O mixed solvent and was injected after the hyperpolarization was established for the precursor tetrazine.

[2] = Injection and detection with small tip angle (product relaxation lifetime); details: 15° tip angle, 6 consecutive spectra in the magnet, 1.6 s delay
Method: In addition to using a 90° pulse-acquire sequence for detection after injection, experiments using small tip angles (15° or 11.25°) were conducted to acquire a series of detection within a short time window (˜10 s), and to use that information to determine the relaxation lifetime of different spin orders of the hyperpolarized product.
FIG. 9, panel a: magnetization of ^15N-enriched tetrazine 1a is first hyperpolarized at 0.4 μT, then a solution of 2 in methanol-d4 is injected (as described in Example 4). Then, the sample is manually transferred as quickly as possible into the magnet, using 15° tip angle to acquire 6 spectra consecutively, with a 1.6 s delay between each acquisition. […] Panel b: singlet spin order of ^15N-enriched tetrazine 1a is first hyperpolarized at 0.3 mT, then a solution of 2 in methanol-d4 is injected (as described in Example 4). Then, the sample is manually transferred as quickly as possible into the magnet, using 11.25° tip angle to acquire 6 spectra consecutively, with a 1.6 s delay between each acquisition. […] Panels c-e: relaxation constant measurements of the hyperpolarized product magnetization, hyperpolarized ^15N2 gas, and hyperpolarized product singlet. The product magnetization has T1 lifetime of ˜6.9 s.

[3] = Hyperpolarization then cycloaddition with cyclooctyne 2: enhancement and lifetime of products; details: methanol-d4; for signal enhancement over thermal spectra, product anti-phase (singlet) signal: tetrazine scalar order hyperpolarized at 0.3 mT, then 2 injected
Excerpt: For the hyperpolarization of the cycloaddition products 3a and 3b, a solution of tetrazine (1a or 1b, respectively), pyridine, and Ir catalyst in methanol-d4 was first hyperpolarized at 0.4 μT or 0.3 mT, depending on which spin order was studied (solution preparation and hyperpolarization procedure described above in Example 4). After hyperpolarization, the para-H2 gas flow was stopped and the pressure was released through the exhaust outlet, after which the injection valve (shown in FIG. 5) was quickly opened to inject a solution of cyclooctyne 2 (4.5 mM) in methanol-d4 (200 μL) (equiv of tetrazine:2=1.0:1.5). Injection was completed in less than 1 second, and the sample was shaken for 3 seconds to reach complete reaction, visually evidenced by the color change from pink (i.e., the color of the tetrazine) to transparent. The sample was then manually transferred to an 8.5 T spectrometer for product signal read out.
Upon the cycloaddition reaction, a noticeable difference in chemical shift is observed on both nitrogen atoms (i.e., N1 and N2 in 1a vs. N1′ and N2′ in 3a). […] Hyperpolarized 3a and ^15N2 are observed. FIG. 3, panels c, e, and g show representative T1 or Ts decay measurements for product 3a magnetization, 3a singlet order, and 3b singlet order, respectively. […] FIG. 3, panels d, f, and h show lifetime measurement data, exponential fit of the data, and calculated T1 or Ts values for product 3a magnetization, 3a singlet order, and 3b singlet order, respectively. In the hyperpolarization-cycloaddition experiments, para-hydrogen was bubbled into a solution of ^15N4-1,2,4,5-tetrazine 1a or 1b (1.5 mM), pyridine (1.0 mM), and Ir(COD)(IMes)Cl (0.15 mM) in methanol-d4 (400 uL), then a solution of 2 (1.5 equivalents) in methanol-d4 (200 μL) was added. The sample was held at 0.3 mT for a variable amount of time before transport to the magnet for detection.

[4] = Concentration dependence of tetrazine hyperpolarization (enhancement and lifetime); details: for T1 / Ts: decay at 0.3 mT
Method: Using serial dilution, solutions of tetrazine 1a, pyridine, and Ir catalyst in methanol-d4 (400 μL) were prepared at different concentrations, but in the same ratio of each component: • (i) 1a (7.5 mM), pyridine (5.0 mM), and Ir(IMES)(COD)Cl (0.75 mM) • (ii) 1a (3.8 mM), pyridine (2.5 mM), and Ir(IMES)(COD)Cl (0.38 mM) • (iii) 1a (1.5 mM), pyridine (1.0 mM), and Ir(IMES)(COD)Cl (0.15 mM) (i.e., default concentrations of solution used in all other experiments) • (iv) 1a (0.60 mM), pyridine (0.40 mM), and Ir(IMES)(COD)Cl (0.060 mM)
For the rest of this section, samples are referred to by the concentration of tetrazine 1a comprising the solution. As described above, either magnetization or singlet tetrazine hyperpolarization was developed following pre-activation of the catalyst. After bubbling para-H^2 through the sample, the sample was transferred to 0.3 mT for a variable period of time. Following this delay, the sample was transported to the magnet and the spectrum was immediately recorded with a 90° pulse-acquire sequence. Triplet magnetization signal was deconvoluted from singlet signal, and fitted to a single exponential decay. Results are shown below in Table 1 and graphically in FIGS. 6a and 6b.

[5] = SABRE-SHEATH hyperpolarization of 15N4-1,2,4,5-tetrazines in methanol-d4
Method: Unless otherwise described, a solution of ^15N-enriched tetrazine (1a or 1b, 1.5 mM), pyridine (1.0 mM), and Ir(IMes)(COD) Cl (0.15 mM) in methanol-d4 (400 μL) was prepared. Note: IMes=1,3-bis(2,4,6-trimethylphenyl) imidazol-2-ylidene; COD=1,5-cyclooctadiene.
The Ir catalyst was pre-activated by bubbling para-H2 through a solution of tetrazine, pyridine, and Ir catalyst (sample preparation described above) for 30 minutes. Following pre-activation, the tetrazine was hyperpolarized, either magnetization or singlet order.
To hyperpolarize magnetization, the solution was placed inside the magnetic shield, with the magnetic field adjusted to 0.4 μT (using a solenoid of 430 mm with 205 turns and a voltage of 7.5 V across 11.4 kOhms). After 3 minutes' bubbling of para-H2, the gas flow was stopped and the sample was manually transferred from the low field to an 8.5 T spectrometer for signal read out as quickly as possible. This manual transfer takes ˜8 seconds, and a 90° pulse-acquire sequence was used for read out.
To hyperpolarize singlet, the sample was placed at a magnetic field of 0.3 mT and para-H2 was bubbled through the solution for 3 minutes. As described in the above procedure, the sample was then manually transferred to an 8.5 T spectrometer as quickly as possible and detected using a 90° pulse-acquire sequence.
Depending on the magnetic field at which hyperpolarization was induced, in-phase signal (magnetization) or anti-phase signal (singlet) was observed. Enhancement values (ε) and polarization levels (p) were obtained by comparison of the hyperpolarized spectrum to a thermal reference spectrum of the respective ^15N4-1,2,4,5-tetrazine. […] Measurement at 0.3 mT. Sample as a solution of ^15N4-1,2,4,5-tetrazine (1.5 mM), pyridine (1.0 mM), and Ir(COD)(IMes)Cl (0.15 mM) in methanol-d4 (400 uL).
Hyperpolarization of 1a and 1b was examined by standard SABRE-SHEATH procedure, as reported by Theis et al. (“Direct and cost-efficient hyperpolarization of long-lived nuclear spin states on universal ^15N2-diazirine molecular tags,” Sci. Adv. 2, e1501438 (2016)). Two different hyperpolarized states for ^15N4-1,2,4,5-tetrazine 1a were observed, depending upon the chosen magnetic field at which the para-hydrogen gas is applied to the sample (FIG. 2b). At very low magnetic fields (˜0.4 μT), the ^15N spin pairs of the tetrazine are hyperpolarized in the triplet states and display in-phase signal upon detection at 8.45 T (i.e., magnetization is hyperpolarized). Conversely, at a relatively broad range of slightly elevated magnetic fields (˜0.2 mT<B<˜50 mT), anti-phase signals are observed after a 90° pulse. In this case, scalar order is hyperpolarized in the tetrazine spin pairs, associated with singlet states on ^15N-spin pairs; upon transfer to high magnetic field for detection, this scalar order is transformed into anti-aligned magnetization (I⋅S is adiabatically converted to Iz-Sz).

[6] = Dilution effect on hyperpolarization (injection of pure methanol-d4); details: 200 μL methanol-d4 injected; singlet order at 0.3 mT
Method: To observe the effect of simple dilution on hyperpolarization, pure methanol-d4 was injected into a solution of hyperpolarized tetrazine to obtain a diluted hyperpolarized signal as follows: tetrazine 1a was hyperpolarized singlet order at 0.3 mT and the spectra were acquired (as described in Example 4). The sample was again bubbled with para-H2 for 3 minutes at 0.3 mT, then the pressure was released and the injection valve was opened, after which 200 μL of methanol-d4 was quickly injected and the sample was manually transferred into the magnet to read out the signal (detailed in Example 4, but with the key difference: pure methanol-d4 used instead of a solution of 2 in methanol-d4). […] The signal observed was about half of the signal before addition.

[7] = Kinetic characterization of tetrazine/cyclooctyne reaction; details: 1.5 mM tetrazine, 1.5 equivalent of 2, CD3OD
Method: Emulating hyperpolarization conditions (below), a 1.5 mM solution of 1c (1 equivalent) in CD3OD (400 μL) was added to an NMR tube. To this solution, a 4.5 mM solution of 2 (1.5 equivalent) in CD3OD (200 μL) was added and the NMR tube was shaken vigorously. Immediately upon addition, the color of the solution changed from pink (due to the pink color of the tetrazine 1c) to colorless. As soon as the pink color completely dissipated (<2 seconds), the sample was placed into the NMR and a spectrum was acquired. The upper trace represents 1c and the lower trace represents 3c, i.e., the product of the cycloaddition reaction.

[8] = tetrazine concentration 0.60 mM
[9] = tetrazine concentration 3.75 mM
[10] = 3:1 methanol-d4:D2O, about 50° C.
[11] = at 0.3 mT, 1.5 mM in methanol-d4

SMILES: c1ccc(-c2[15n][15n]c[15n][15n]2)cc1 [1a, 3-Phenyl-1,2,4,5-tetrazine-1,2,4,5-^15N4]
- Singlet enhancement at 0 s delay (normalized to 1.5 mM singlet, %) [4, 8]: 96%
- Z-Magnetization enhancement at 0 s delay (normalized to 1.5 mM Z-magnetization, %) [4, 8]: 130%
- T1 [4, 8]: 74 s
- Ts [4, 8]: 357 s
- Singlet enhancement at 0 s delay (normalized to 1.5 mM singlet, %) ([4]; tetrazine concentration 1.5 mM): 100%
- Z-Magnetization enhancement at 0 s delay (normalized to 1.5 mM Z-magnetization, %) ([4]; tetrazine concentration 1.5 mM): 100%
- T1 ([4]; tetrazine concentration 1.5 mM): 91 s
- Ts ([4]; tetrazine concentration 1.5 mM): 137 s
- Singlet enhancement at 0 s delay (normalized to 1.5 mM singlet, %) [4, 9]: 77%
- Z-Magnetization enhancement at 0 s delay (normalized to 1.5 mM Z-magnetization, %) [4, 9]: 86%
- T1 [4, 9]: 72 s
- Ts [4, 9]: 58 s
- Singlet enhancement at 0 s delay (normalized to 1.5 mM singlet, %) ([4]; tetrazine concentration 7.5 mM): 56%
- Z-Magnetization enhancement at 0 s delay (normalized to 1.5 mM Z-magnetization, %) ([4]; tetrazine concentration 7.5 mM): 66%
- T1 ([4]; tetrazine concentration 7.5 mM): 47 s
- Ts ([4]; tetrazine concentration 7.5 mM): 48 s
- enhancement compared to that in neat methanol-d4 [1, 10]: about 30%
- signal enhancement [1, 10]: ~900 fold
- lifetime of scalar order relative to magnetization ([5]; at 0.3 mT): about 2 times
- magnetization relaxation constant T1 [5, 11]: 1.4 ± 0.1 min
- relaxation constant of the scalar order of the 15N spin pairs, Ts [5, 11]: 2.7 ± 0.3 min
- signal enhancement over 8.45 T thermal measurements ([5]; tetrazine 1.5 mM, pyridine 1.0 mM, Ir(COD)(IMes)Cl 0.15 mM in methanol-d4): up to 3,000 fold
- hyperpolarized singlet signal after dilution relative to signal before addition [6]: about half

SMILES: [2H]c1[15n][15n]c(-c2ccccc2)[15n][15n]1 [1b, 3-Phenyl-1,2,4,5-tetrazine-6-d-1,2,4,5-^15N4]
- relaxation constant of the scalar order of the 15N spin pairs, Ts [5, 11]: 2.1 ± 0.7 min
- enhancement of hyperpolarized scalar order ([5]; singlet mode, 1.5 mM in methanol-d4): 2900 fold
- hyperpolarized magnetization (T1) obtainable ([5]; μT fields): not possible to create the hyperpolarized magnetization

SMILES: c1ccc(-c2nncnn2)cc1 [1c, 3-Phenyl-1,2,4,5-tetrazine]
- time until pink color completely dissipated on reaction with 2 [7]: < 2 s

The remaining lines, values ahead:

- hyperpolarized signal from cycloaddition product ([1]; 3:1 CD3OD:D2O, 50° C.): detected the hyperpolarized signal
- product magnetization T1 lifetime [2]: ~6.9 s
- lifetime Ts of product ([3]; held at 0.3 mT): 13 ± 2 s
- magnetization lifetime T1 of product ([3]; held at 0.3 mT): 13 ± 4 s
- enhancement over thermal spectra, hyperpolarized product magnetization ([3]; tetrazine magnetization hyperpolarized at 0.4 μT, then 2 added at 0.3 mT): 540 fold
- signal enhancement over thermal spectra, product anti-phase (singlet) signal [3]: 140 fold
SMILES: OC[C@H]1[C@H]2CCc3c(c[15n][15n]c3-c3ccccc3)CC[C@@H]12 (racemic) [3a, (1-Phenyl-6,6a,7,7a,8,9-hexahydro-5H-cyclopropa[5,6]cycloocta[1,2-d]pyridazin-7-yl-2,3-15N2)methanol]

- lifetime Ts of product ([3]; held at 0.3 mT): 24 ± 6 s
- signal enhancement over thermal spectra, product anti-phase (singlet) signal [3]: 180 fold
SMILES: [2H]c1[15n][15n]c(-c2ccccc2)c2c1CC[C@H]1[C@@H](CO)[C@H]1CC2 [3b, (1-Phenyl-6,6a,7,7a,8,9-hexahydro-5H-cyclopropa[5,6]cycloocta[1,2-d]pyridazin-7-yl-4-d-2,3-^15N2)methanol]

From US11796610B2, “Compositions as molecular tags for hyperpolarization NMR and magnetic resonance and methods of making and using same” (Duke University, priority 2018, dated 2023)
